Reference: ChEMBL document CHEMBL1129392, “Design, synthesis, and evolution of a novel, selective, and orally bioavailable class of thrombin inhibitors: P1-argininal derivatives incorporating P3-P4 lactam sulfonamide moieties” (J Med Chem, 1996)

Experiments:
[1] = biological target: T1, Serine protease 1 (Homo sapiens, UniProt P07477); assay: In vitro for inhibition of serine protease Trypsin.
[2] = biological target: T2, Coagulation factor X (Homo sapiens, UniProt P00742)
Description: In vitro for inhibition of Coagulation factor X

[3] = biological target: T3, Prothrombin (Homo sapiens, UniProt P00734); assay: In vitro for inhibition of serine protease thrombin(FIIa).
[4] = biological target: T3, Prothrombin; assay: compound was tested in vitro for inhibition of serine protease thrombin(FIIa).
[5] = biological target: T4, Trypsin II (Bos taurus, UniProt Q29463); assay: compound was tested in vitro for inhibition of serine protease Trypsin.
T4 sequence (Q29463 whole entry): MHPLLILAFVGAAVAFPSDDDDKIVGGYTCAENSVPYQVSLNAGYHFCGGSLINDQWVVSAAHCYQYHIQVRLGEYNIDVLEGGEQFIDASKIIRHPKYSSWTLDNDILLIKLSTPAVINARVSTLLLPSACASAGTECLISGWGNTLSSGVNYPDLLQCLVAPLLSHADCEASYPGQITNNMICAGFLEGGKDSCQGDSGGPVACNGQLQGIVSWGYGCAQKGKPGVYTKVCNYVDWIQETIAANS

[6] = biological target: T1, Serine protease 1; assay: compound was tested in vitro for inhibition of serine protease Trypsin; inactive
[7] = biological target: T3, Prothrombin; assay: compound was tested in vitro for inhibition of serine protease thrombin (FIIa); inactive
[8] = biological target: T2, Coagulation factor X; assay: compound was tested in vitro for inhibition of Coagulation factor X; inactive
[9] = biological target: T2, Coagulation factor X; assay: compound was tested in vitro for inhibition of Coagulation factor X

T2 sequence (P00742 41-179 limits assumed): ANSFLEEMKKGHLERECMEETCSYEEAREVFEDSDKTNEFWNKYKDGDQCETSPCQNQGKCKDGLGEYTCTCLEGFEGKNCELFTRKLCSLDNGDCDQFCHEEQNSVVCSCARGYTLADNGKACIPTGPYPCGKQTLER
T2 sequence (P00742 235-488 limits assumed): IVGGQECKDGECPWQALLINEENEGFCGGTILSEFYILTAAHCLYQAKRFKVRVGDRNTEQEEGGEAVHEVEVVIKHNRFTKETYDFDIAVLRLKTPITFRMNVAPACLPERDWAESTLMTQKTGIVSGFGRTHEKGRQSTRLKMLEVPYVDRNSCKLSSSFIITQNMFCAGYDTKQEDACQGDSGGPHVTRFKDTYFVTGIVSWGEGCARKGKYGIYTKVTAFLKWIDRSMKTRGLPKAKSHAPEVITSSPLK
T1 sequence (P07477 whole entry): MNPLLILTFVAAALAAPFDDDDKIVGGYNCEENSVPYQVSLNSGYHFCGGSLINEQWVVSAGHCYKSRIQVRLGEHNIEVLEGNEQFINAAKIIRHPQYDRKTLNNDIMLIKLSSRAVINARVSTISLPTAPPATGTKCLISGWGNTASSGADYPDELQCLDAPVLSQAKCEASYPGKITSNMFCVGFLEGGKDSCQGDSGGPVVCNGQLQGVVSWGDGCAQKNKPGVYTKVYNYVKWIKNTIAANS

Row | Compound | IC50 [1] [nM] | IC50 [2] [nM] | IC50 [3] [nM] | other results
1 | N=C(N)C1CCC[C@H](NC(=O)CN2CCC[C@@H](NS(=O)(=O)Cc3ccccc3)C2=O)C1O (stereo not given in full) | 467 | 2500 | 157 | 
2 | N=C(N)C1CCC[C@H](NC(=O)CN2CCC[C@H](NS(=O)(=O)Cc3ccccc3)C2=O)C1O (stereo not given in full) | 791 | 2500 | 6.2 | Ki [4]: 1.01 nM
3 | CCCCS(=O)(=O)N[C@H]1CCCN(CC(=O)N[C@H]2CCCC(C(=N)N)C2O)C1=O (stereo not given in full) |  | 2500 | 709 | IC50 [5]: 2500 nM
4 | CC(C)(C)OC(=O)N[C@H]1CCCN(CC(=O)N[C@H]2CCCC(C(=N)N)C2O)C1=O (stereo not given in full) | 16800 | 2500 |  | 
5 | N=C(N)C1CCC[C@H](NC(=O)CN2CCC[C@H](NC(=O)NS(=O)(=O)c3ccccc3)C2=O)C1O (stereo not given in full) |  |  |  | IC50 [6]: Not Active; IC50 [7]: Not Active; IC50 [8]: Not Active
6 | N=C(N)C1CCC[C@H](NC(=O)CN2CCC[C@H](NC(=O)Cc3ccccc3)C2=O)C1O (stereo not given in full) |  |  | 2500 | IC50 [8]: Not Active; IC50 [5]: > 2500 nM
7 | CCCC(CCC)C(=O)N[C@@H](CC(=O)OC)C(=O)N1CCC[C@@H]1C(=O)N[C@H]1CCCC(C(=N)N)C1O (stereo not given in full) | 1.36 |  | 1.1 | 
8 | N=C(N)C1CCC[C@H](NC(=O)CN2CCC[C@H](NS(=O)(=O)c3cccc4ccccc34)C2=O)[C@@H]1O (stereo not given in full) |  | 2500 | 111 | IC50 [5]: 1020 nM
9 | COC(=O)c1ccccc1CS(=O)(=O)N[C@H]1CCCCN(CC(=O)N[C@H]2CCCC(C(=N)N)C2O)C1=O (stereo not given in full) | 137 | 471 | 1.12 | Ki [4]: 0.85 nM
10 | N=C(N)C1CCCC(NC(=O)CN2CC[C@H](NS(=O)(=O)Cc3ccccc3)C2=O)C1O (stereo not given in full) |  |  |  | IC50 [4]: 125 nM; IC50 [9]: 2500 nM; IC50 [5]: 538 nM
11 | N=C(N)C1CCC[C@H](NC(=O)CN2CCC[C@H](NS(=O)(=O)NC3CCCCC3)C2=O)C1O (stereo not given in full) | 147 | 1950 | 235 | 
12 | CN[C@H](Cc1ccccc1)C(=O)N1CCC[C@@H]1C(=O)N[C@H]1CCCC(C(=N)N)C1O (stereo not given in full) | 1.52 | > 2500 | 0.7 | 

The next lines start with results.

Row | IC50 [1] [nM] | IC50 [2] [nM] | IC50 [3] [nM] | Compound | other results
13 | 2500 | 2500 | 420 | N=C(N)C1CCC[C@H](NC(=O)CN2CCC[C@H](NS(=O)(=O)CCc3ccccc3)C2=O)C1O (stereo not given in full) | 
14 | 16.6 | 479 | 14.2 | N=C(N)C1CCC[C@H](NC(=O)CN2CCCC[C@H](NS(=O)(=O)c3ccccc3)C2=O)C1O (stereo not given in full) | 
15 | 770 | 1100 | 159 | N=C(N)C1CCC[C@H](NC(=O)CN2CCC[C@H](NS(=O)(=O)c3ccccc3)C2=O)C1O (stereo not given in full) | 
16 |  | 2500 | 286 | CC(C(=O)N[C@H]1CCCC(C(=N)N)C1O)N1CCC[C@H](NS(=O)(=O)Cc2ccccc2)C1=O (stereo not given in full) | IC50 [5]: 293 nM
17 | > 2500 |  | > 2500 | C[C@H](C(=O)N[C@H]1CCCC(C(=N)N)C1O)N1CCCC[C@H](NS(=O)(=O)Cc2ccccc2)C1=O (stereo not given in full) | IC50 [8]: Not Active
18 | 74.5 | 20.6 | 0.71 | N=C(N)C1CCC[C@H](NC(=O)CN2CCCC[C@H](NS(=O)(=O)Cc3ccccc3)C2=O)C1O (stereo not given in full) | Ki [4]: 0.54 nM
